Columns and labels:
Type in all cases: cell-based
[1] = tested on: rat mesenchymal stem cells attached to H9c2 cells; test: Adhesion of bio-pin-treated mesenchymal stem cells to H9c2 cells (intercellular bond number); settings: stem cells treated with 1 μM bio-pin for an hour, kept 10 minutes on H9c2 cells; fluorescence microscope and spectrometer
Method: (§1) Rat cardiac myoblast H9c2 cells were incubated until a 4-well chamber (Lab-Tek chamber slide) was 100% filled with the H9c2 cells. Thereafter, the H9c2 cells were treated with a cell-labeled dye (Vybrant™ DiI) at a final concentration of 5 μl/mL, reacted at 37° C. for 30 minutes in a CO2 incubator, and then washed three times with PBS.
(§2) Also, rat mesenchymal stem cells were cultured in a MesenPRO (Gibco, USA) medium in a petri dish. Thereafter, trypsin-EDTA and a trypsin-neutralizing solution were added at a ratio of 1:1, and then reacted for 5 minutes to detach the stem cells. The stem cells were treated with a cell-modifying dye (Vybrant™ DiO, Invitrogen, USA) at a final concentration of 5 μl/mL, reacted at 37° C. for 30 minutes in a CO2 incubator, washed three times with PBS, and then centrifuged for 3 minutes at a rotary speed of 1,200 rpm to be prepared.
(§3) The prepared stem cells were treated with the peptide-based complex previously prepared in Example 1 or 2 at a final concentration of 1 μM, reacted at 37° C. for an hour in a CO2 incubator while stirring right and left, washed three times with PBS, and then centrifuged to obtain a cell pellet. […] To quantify the MSCs attached to the H9c2 cells, a cell medium was removed off, and 200 μl of 0.1% Triton X-100 was added, and removed off after 5 minutes.

[2] = tested on: rat mesenchymal stem cells (MSCs) attached to H9c2 cells; test: Adhesion of BPin-RGD-treated mesenchymal stem cells to H9c2 cells (intercellular bond number); settings: stem cells treated with 100 nM bio-pin for an hour, kept 10 minutes on H9c2 cells; fluorescence 484 nm/501 nm
Method: as §1, with “CellMask™ plasma membrane stain (Invitrogen, USA)” for “cell-labeled dye (Vybrant™ DiI)”
as §2, with “stem cells (MSCs) were cultured” for “stem cells were cultured”, “concentration of 2 μl/mL, reacted” for “concentration of 5 μl/mL, reacted”, “of 1,200 rpm.” for “of 1,200 rpm to be prepared.”
as §3, with “bio-pin” for “peptide-based complex previously”, “3” for “1 or 2”, “100 nM,” for “1 μM,”, “pellet. Subsequently, the cell pellet was re-suspended in 400 μl of a DMEM medium supplemented with 10% FBS.” for “pellet.”, “cells,” for “cells, a cell medium was removed off, and”

[3] = tested on: intercellular cell adhesion molecule-1 (ICAM-1); test: Immunoblotting of HUVEC lysate with anti-ICAM-1 antibody; settings: TNF-alpha 10 ng/mL for 24 hours
Method: (§4) HUVECs (5×10^4 cells/well) were cultured in an EGM medium (Lonza, USA) on a 24-well plate, starved for 4 hours in a 0.5% EBM medium, and treated with TNF-alpha (10 ng/mL) for 24 hours. Thereafter, the HUVECs were treated with a CellMask™ plasma membrane stain (Invitrogen, USA) at a final concentration of 5 μg/mL, reacted at 37° C. for 30 minutes in a CO2 incubator, and then washed three times with PBS.
(§5) Also, to determine whether the HUVECs were suitably stimulated with TNF-alpha, immunoblotting was performed using anti-ICAM-1 and anti-VCAM-1 antibodies.

[4] = tested on: vascular cell adhesion molecule-1 (VCAM-1); test: Immunoblotting of HUVEC lysate with anti-VCAM-1 antibody; settings: TNF-alpha 10 ng/mL for 24 hours
Method: as §4, §5

BPin-55: bio-pin in which TAT cell-penetrating peptides are fused with N- and C-terminus of 31-amino-acid OPRD first transmembrane domain peptide (YGRKKRRQRRRGSLAIAITALYSAVCAVGLLGNVLVMFGIVRYTYGRKKRRQRRR; BPin-55 TAT-OPRD-TAT)
number of intercellular bonds (FIGS. 5 and 6) [1]: remarkably increased

BPin-RGD: bio-pin with adhesive peptide (GRGDSP) at N-terminus and TAT cell-penetrating peptide at C-terminus of the 31-amino-acid OPRD peptide (GRGDSPGSLAIAITALYSAVCAVGLLGNVLVMFGIVRYTYGRKKRRQRRR; BPin-RGD RGD-OPRD-TAT)
number of intercellular bonds (FIG. 7) [2]: remarkably increased

TNF-alpha
ICAM-1 expression in HUVECs (FIG. 9) [3]: increasingly expressed
VCAM-1 expression in HUVECs (FIG. 9) [4]: increasingly expressed

Reference: patent publication US9110059B2, “Bio-pin” (Industry-Academic Cooperation Foundation, Yonsei University, priority 2011, dated 2015)
